Where a name gives a salt, the structure may show the parent alone. Read-outs that look alike come from different tables or passages of the source. Numbered stars: 1 amine (or outer) side, 2 acyl side, 3 side chain; on linkers, the order of the positions; unused ones are H or OH. Bridge positions count the residues as written; N and C are the ends. Square brackets hold non-standard residues; d marks the D form. Peptide text beside a SMILES is read from it. * marks the point of attachment. pTerphenylCO(4''-OnC5H11) = CCCCCOc1ccc(-c2ccc(-c3ccc(C(=O)*)cc3)cc2)cc1; Orn(4R-OH,5R-OH) = O=C([C@H](C[C@@H](O)[C@@H](O)N[*:3])N[*:1])[*:2]; hTyr(3S-OH,4S-OH) = N[C@H](C(=O)O)[C@H](O)[C@@H](O)c1ccc(O)cc1; Pro(3S-OH,4S-Me) = C[C@H]1CN[C@H](C(=O)O)[C@H]1O; Hyp = O=C(O)[C@@H]1C[C@@H](O)CN1
System: PRKACA-PRKAR2A interaction (SmBiT-PRKACA / LgBiT-PRKAR2A), protein kinase A
Design: NanoLuc complementation counter-screen in cell extract, PRKACA with PRKAR2A, loss of luminescence, detects NanoLuc interference
Conditions: counter-screen for NanoLuc interference, 0.5 h, 20 µM, inhibitor

SMILES	Inh (PKA) [%]	Inh (PKA) (Inh (PKA)) [%]
CC(C)Nc1cc(-c2c[nH]c(C(=O)N[C@H](CO)c3cccc(Cl)c3)c2)c(Cl)cn1 [UM0142171:01, VRT752271]	17.24	–
Cc1cc(C(N)=O)ccc1-n1c(CCC(=O)O)ccc1-c1ccc(-n2ccnc2)cc1 [UM0142172:01, N6022]	4.784	–
COc1cc(NC(=O)Nc2cccc(CNC(=O)O[C@H]3CCOC3)c2)ccc1-c1cnco1 [UM0142173:01, Merimepodib]	28.05	–
Cc1cc(-c2nc(-c3ccc(OC(F)(F)F)cc3)no2)nn1Cc1ccnc(N2CCN(C3CC3)CC2)c1 [UM0142175:01, BAY 87-2243]	5.354	–
COc1cc2c(NC3CCN(CC4CCCCC4)CC3)nc(N3CCCN(C(C)C)CC3)nc2cc1OCCCN1CCCCC1 [UM0142178:01, UNC 0631]	0.9058	–
CCn1c(=O)c(-c2ccc(-c3cncs3)cc2Cl)cc2cnc(Nc3ccc(N4CCN(C)CC4)cc3)nc21 [UM0142182:01, FRAX597]	16.18	–
O=C(NCc1ccncc1)C12CC3CC(C1)CC(c1ccc(Cl)cc1)(C3)C2 [UM0142183:01, ABC294640]	8.98	–
N#Cc1cc(-c2n[nH]c(-c3ccncc3)n2)ccn1 [UM0142184:01, Topiroxostat]	3.047	–
CN[C@H](CC(C)C)C(=O)N[C@H]1C(=O)N[C@@H](CC(N)=O)C(=O)N[C@H]2C(=O)N[C@H]3C(=O)N[C@H](C(=O)N[C@H](C(=O)O)c4cc(O)cc(O)c4-c4cc3ccc4O)[C@H](O)c3ccc(c(Cl)c3)Oc3cc2cc(c3O[C@@H]2O[C@H](CO)[C@@H](O)[C@H](O)[C@H]2O[C@H]2C[C@](C)(N)[C@H](O)[C@H](C)O2)Oc2ccc(cc2Cl)[C@H]1O [UM0142186:01, Vancomycin hydrochloride]	-0.993	–
CCCCCOc1ccc(-c2ccc(-c3ccc(C(=O)N[C@H]4C[C@@H](O)[C@@H](O)NC(=O)[C@@H]5[C@@H](O)[C@@H](C)CN5C(=O)[C@H]([C@@H](C)O)NC(=O)[C@H]([C@H](O)[C@@H](O)c5ccc(O)cc5)NC(=O)[C@@H]5C[C@@H](O)CN5C(=O)[C@H]([C@@H](C)O)NC4=O)cc3)cc2)cc1 [UM0142187:01, Anidulafungin] ({pTerphenylCO(4''-OnC5H11)}-[Orn(4R-OH,5R-OH)]T[Hyp][hTyr(3S-OH,4S-OH)]T[Pro(3S-OH,4S-Me)]; lactam 1-C)	1.476	–
CCOC(=O)[C@@H](N)CCC(=O)N[C@@H](CSCc1ccccc1)C(=O)N[C@@H](C(=O)OCC)c1ccccc1 [UM0142188:01, Ezatiostat hydrochloride]	–	1.044
c1cc(OCCN2CCCCC2)cc(-c2n[nH]c3ccc(-c4nnc[nH]4)cc23)c1 [UM0142189:01, CC-401]	1.846	–
COc1cc(F)c(F)c(Nc2ccc(I)cc2F)c1NS(=O)(=O)C1(C[C@H](O)CO)CC1 [UM0142191:01, Refametinib]	65.39	–
CC(=O)Oc1cc2c(s1)CCN(C(C(=O)C1CC1)c1ccccc1F)C2 (stereo not shown) [UM0142193:01, Prasugrel hydrochloride]	–	10.44
C[S+]([O-])c1ccc(-c2nc(-c3ccc(F)cc3)c(-c3ccncc3)[nH]2)cc1 (stereo not shown) [UM0142194:01, SB 203580 hydrochloride]	–	15.97
CN(C)C(=O)c1ccc(S(=O)(=O)c2ccc(NC(=O)[C@@](C)(O)C(F)(F)F)c(Cl)c2)cc1 [UM0142195:01, AZD7545]	0.1491	–
C[C@@H]1CCNC(=O)c2cc3ccc(C(=O)Nc4nc5ccccc5n4CCCN(C)C)cc3n21 [UM0142196:01, BIX 02565]	22.65	–
COc1cc2ncnc(Sc3nnc(C)s3)c2cc1OC [UM0142197:01, SKLB1002]	-0.2342	–
COc1ccc(S(=O)(=O)N(CCO)c2ccccc2CN(C)C/C=C/c2ccc(Cl)cc2)cc1 [UM0142198:01, KN-93 hydrochloride]	–	38.66
O=C1c2ccccc2C(=O)c2oc(-c3cccnc3)nc21 [UM0142199:01, SJB3-019A]	9.933	–
CC(C)(C)NCC(O)c1cc(O)cc(O)c1 (stereo not shown) [UM0142204:01, Terbutaline Sulfate]	1.128	–

SMILES	Inh (PKA) [%]	Inh (PKA) (Inh (PKA)) [%]
CNC[C@H](O)c1ccc(O)c(O)c1 [UM0142209:01, L-Adrenaline]	7.349	–
COCCc1ccc(OCC(O)CNC(C)C)cc1 (stereo not shown) [UM0142210:01, Metoprolol Tartrate]	1.896	–
CC(C)(C)NCC(O)c1ccc(O)c(CO)c1 (stereo not shown) [UM0142213:01, Salbutamol Sulfate]	-0.5821	–
c1ccc2c(c1)CCCC2C1=NCCN1 (stereo not shown) [UM0142214:01, Tetrahydrozoline HCl]	-0.4463	–
COc1ccc(C[C@@H]2c3cc(OC)c(OC)cc3CC[N@+]2(C)CCC(=O)OCCCCCOC(=O)CC[N@@+]2(C)CCc3cc(OC)c(OC)cc3[C@H]2Cc2ccc(OC)c(OC)c2)cc1OC [UM0142215:01, Cisatracurium Besylate]	2.146	–
Cc1cccc(Cc2c[nH]cn2)c1C [UM0142216:01, Detomidine HCl]	4.249	–
COc1cc2c(cc1OC)CC(=O)N(CCCN(C)C[C@H]1Cc3cc(OC)c(OC)cc31)CC2 [UM0142218:01, Ivabradine HCl]	-0.5336	–
Cc1cccc(C(C)c2c[nH]cn2)c1C (stereo not shown) [UM0142219:01, Medetomidine HCl]	7.933	–
CN1[C@@H]2CC(O)C[C@H]1[C@@H]1O[C@@H]12 (stereo partly shown) [UM0142220:01, Scopine]	1.123	–
N=C(N)NC(=N)NCCc1ccccc1 [UM0142225:01, Phenformin HCl]	1.045	–
CCC(=O)Nc1cccc(Oc2nc(Nc3ccc(N4CCN(C)CC4)cc3OC)ncc2Cl)c1 [UM0142226:01, WZ4003]	29.29	–
CC(C)(C#N)c1cc(Cn2cncn2)cc(C(C)(C)C#N)c1 [UM0142230:01, Anastrozole]	5.113	–
COc1ccc2[nH]c([S@@+]([O-])Cc3ncc(C)c(OC)c3C)nc2c1 [UM0142233:01, Esomeprazole Sodium]	–	0.8501
CCCC(CCC)C(=O)O [UM0142234:01, Divalproex Sodium]	–	2.043
CCOC(=O)C1=C(C)NC(C)=C(C(=O)OC)C1c1cccc([N+](=O)[O-])c1 (stereo not shown) [UM0142235:01, Nitrendipine]	91.42	–
COc1cc2nccc(Oc3ccc(NC(=O)C4(C(=O)Nc5ccc(F)cc5)CC4)cc3)c2cc1OC [UM0142237:01, Cabozantinib malate (XL184)]	–	10.79
Cc1ccc(C(=O)Nc2ccc(CN3CCN(C)CC3)c(C(F)(F)F)c2)cc1C#Cc1cnc2[nH]ncc2c1 [UM0142238:01, GZD824]	15.4	–
CNC(=O)c1cc(Oc2ccc(NC(=O)Nc3cc(C(C)(C)C)nn3-c3ccc4ncccc4c3)c(F)c2)ccn1 [UM0142239:01, DCC-2036 (Rebastinib)]	12.64	–
O=C1Nc2ccc(I)cc2/C1=C/c1cc(Br)c(O)c(Br)c1 [UM0142240:01, GW5074]	70.55	–
CC(C)(C)c1nc(-c2cccc(NS(=O)(=O)c3c(F)cccc3F)c2F)c(-c2ccnc(N)n2)s1 [UM0142241:01, Dabrafenib (GSK2118436)]	–	30.14
CC1=C(C(=O)OC(C)C)C(c2cccc([N+](=O)[O-])c2)C(C(=O)OC2CN(C(c3ccccc3)c3ccccc3)C2)=C(N)N1 (stereo not shown) [UM0142244:01, Azelnidipine]	35.77	–

SMILES	Inh (PKA) [%]	Inh (PKA) (Inh (PKA)) [%]
CCCC(=O)OCOC(=O)C1=C(C)NC(C)=C(C(=O)OC)C1c1cccc(Cl)c1Cl (stereo not shown) [UM0142245:01, Clevidipine Butyrate]	81.79	–
CCOC(=O)C1=C(C)NC(C)=C(C(=O)OC)C1c1cccc(Cl)c1Cl (stereo not shown) [UM0142246:01, Felodipine]	92.04	–
CCOC(=O)C1=C(C)NC(C)=C(C(=O)OCC)C1c1ccccc1/C=C/C(=O)OC(C)(C)C [UM0142247:01, Lacidipine]	92.96	–
CCCCN1CCCCC1C(=O)Nc1c(C)cccc1C (stereo not shown) [UM0142248:01, Bupivacaine HCl]	-0.8766	–
CCCCN1CCCC[C@H]1C(=O)Nc1c(C)cccc1C [UM0142248:02, Levobupivacaine HCl]	0.7845	–
CCc1c(C(=O)NCCc2ccc(N3CCCCC3)cc2)[nH]c2ccc(Cl)cc12 [UM0142252:01, Org 27569]	10.23	–
CCN1/C(=C/C(C)=O)Sc2ccc(OC)cc21 [UM0142254:01, TG003]	0.5333	–
Cn1cc(-c2[nH]c3cc(NC(=O)[C@H](N)C4CCCCC4)cc4c3c2C=NNC4=O)cn1 [UM0142256:01, PF-477736]	39.56	–
Nc1nccc(Oc2ccc(NC(=O)c3c[nH]cc(-c4ccc(F)cc4)c3=O)cc2F)c1Cl [UM0142257:01, BMS-794833]	54.88	–
CN1CCN(C2CCN(C(=O)Nc3cc(Oc4ccc(NC(=O)C5(C(=O)Nc6ccc(F)cc6)CC5)c(F)c4)ccn3)CC2)CC1 [UM0142258:01, Golvatinib (E7050)]	5.292	–
CN1C(C(=O)Nc2ccccn2)=C(O)c2sc(Cl)cc2S1(=O)=O [UM0142259:01, Lornoxicam]	33.4	–
CCc1cccc2c3c([nH]c12)C(CC)(CC(=O)O)OCC3 (stereo not shown) [UM0142260:01, Etodolac]	0.3149	–
CC(C(=O)O)c1cccc(C(=O)c2ccccc2)c1 (stereo not shown) [UM0142261:01, Ketoprofen]	-0.4888	–
O=C(c1ccccc1)c1ccc2n1CCC2C(=O)O (stereo not shown) [UM0142262:01, Ketorolac tromethamine salt]	–	-1.185
CC1(C)Cc2c(-c3ccccc3)c(-c3ccc(Cl)cc3)c(CC(=O)O)n2C1 [UM0142263:01, Licofelone]	28.18	–
Cc1ccc(Nc2c(F)cccc2Cl)c(CC(=O)O)c1 [UM0142264:01, Lumiracoxib]	7.46	–
CC(C(=O)O)c1ccc2c(c1)CC(=O)c1ccccc1S2 (stereo not shown) [UM0142265:01, Zaltoprofen]	16.72	–
COc1cc(-c2ncn(/C=C\C(=O)OC(C)C)n2)cc(C(F)(F)F)c1 [UM0142266:01, KPT-185]	22.3	–
O=C(/C=C\n1cnc(-c2cc(C(F)(F)F)cc(C(F)(F)F)c2)n1)N1CC(F)(F)C1 [UM0142267:01, KPT-276]	9.545	–
